In BindingDB's records for doi:10.1016/j.bmcl.2003.12.023 (Pfizer, 2004):

Molecular target: Mitogen-activated protein kinase 14 (Homo sapiens, UniProt Q16539)
Assay: Enzyme Inhibition Assay

Chain of Mitogen-activated protein kinase 14 (Q16539 whole entry): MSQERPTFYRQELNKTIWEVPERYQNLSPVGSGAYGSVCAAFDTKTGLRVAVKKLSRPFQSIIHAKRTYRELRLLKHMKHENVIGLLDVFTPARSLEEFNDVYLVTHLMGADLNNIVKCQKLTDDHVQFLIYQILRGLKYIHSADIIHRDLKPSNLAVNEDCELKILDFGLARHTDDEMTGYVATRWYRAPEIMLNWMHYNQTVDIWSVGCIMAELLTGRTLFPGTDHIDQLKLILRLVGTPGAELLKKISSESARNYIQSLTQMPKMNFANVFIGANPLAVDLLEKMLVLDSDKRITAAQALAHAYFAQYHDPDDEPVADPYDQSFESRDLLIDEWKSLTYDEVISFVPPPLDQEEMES

Which IC50 does the source give for `CCn1c(=O)n(CC)c2cc(-c3[nH]c(C4CCNCC4)nc3-c3cccc(C)c3)ccc21` [1,3-diethyl-5-[4-(3-methylphenyl)-2-(piperidin-4-yl)-1H-imidazol-5-yl]-2,3-dihydro-1H-1,3-benzodiazol-2-one] here?
The IC50 was 0.07 µM.
